According to PubChem BioAssay AID2060907 (Molecular Pharmacology Branch, DTP, NCI, 2025):

System: 388556-164-R-J1-PDC complex spheroid viability
Assay: Anticancer human tumor 388556-164-R-J1-PDC patient-derived colon adenocarcinoma cell line growth inhibition [RAS]
Conditions: for IC50: curve of first compound; for viability, T/C: stronger effect = lower value; active = viability on the fitted dose curve at most 10% of control; inactive = the rest
Description: RAS pathway inhibitors in Combinations in Complex Spheroids
A high-throughput screen of multi-cell type tumor spheroids was designed to identify active combinations of RAS pathway inhibitors and targeted small molecules. Complex spheroids include a stromal component modeled by human endothelial cells (HUVEC) and fibroblasts modeled by human mesenchymal stem cells (MSCs). The concentration ranges selected for each drug and investigational agent were based upon clinically achievable concentrations if the clinical Cmax of the agent was known.
Compounds. The drugs and investigational agents: abemaciclib (NSC768073), cobimetinib (NSC768068), divarasib (GDC6063, NSC841802), docetaxel (NSC628503), GDC-1971 (RLY-1971, NSC841576), gemcitabine (NSC613327), inavolisib (NSC800729), ipatasertib (NSC767898), KB-0742 (NSC834161), MRTX-1133 (NSC836407), osimertinib (NSC779217), RMC-4630 (NSC839698), RMC-6236 (NSC851965), RMC-6291 (NSC852671), Ro-3306 (NSC812927), sapanisertib (NSC764658), SN-38 (NSC673596), staurosporine (NSC755774), SY5609 (NSC837396), and tovorafenib (DAY101, NSC766906), were obtained from the National Cancer Institute (NCI) Developmental Therapeutics Program Chemical Repository. The FDA-approved anticancer drug set is available from the NCI Developmental Therapeutics Program. […] The stock solutions were prepared in dimethyl sulfoxide (DMSO, Sigma-Aldrich, St. Louis, MO, cat. D2650) at 800-fold the tested concentration and stored at -70 degrees C prior to their use. All drugs and investigational agents were tested over a range starting from a high concentration at or near the clinical Cmax and decreasing in half-log increments. If the clinical Cmax for an agent had not been determined, the highest concentration tested was 10 microM.
Cell Culture. All cells were maintained in an incubator at 37 degrees C and 5% CO2 with 95% humidity. The PDC lines were cultured according to standard operating procedures established by the NCI PDMR. All PDCs were thawed and cultured in Matrigel-coated flasks prepared with a working solution of 1X Ham's F-12 nutrient mix, without supplementation (Invitrogen, Waltham, MA, cat. 11765054), 100 U/mL penicillin-streptomycin (Invitrogen, cat. 15140122), and 2.5% Matrigel (Corning Inc., Corning, NY, cat. 354248) for the first three passages. The 362531-283-R-J2-PDC and 782815-120-R-J1-PDC lines were cultured in 6C/Colon 1B media, which includes advanced DMEM/F-12 (Thermo Fisher Scientific, cat. 12634028), 10 mM HEPES (Thermo Fisher Scientific, cat. 15630080), 1X GlutaMAX supplement (Thermo Fisher Scientific, cat. 35050061), 0.1 mg/mL primocin (InvivoGen, San Diego, CA, cat. ant-pm-2), 10% defined fetal bovine serum, heat inactivated (HyClone Laboratories Inc., Logan, UT, cat. SH30070.03HI), 50% L-WRN conditioned media (ATCC, cat. CRL-3276), 1.25 mM N-Acetyl-L-cysteine (Sigma-Aldrich, cat. A9165), 10 mM nicotinamide (Sigma-Aldrich, cat. N0636), 1X B-27 supplement (Thermo Fisher Scientific, cat. 17504044), 1X N-2 supplement (Thermo Fisher Scientific, cat. 17502048), 50 ng/mL human EGF (Thermo Fisher Scientific, cat. PHG0311), and 10 microM Y-27632 dihydrochloride (Tocris Bioscience, cat. 1254). The K12877-001-R-J1-PDC line was cultured in 6I media, which includes all 6C/Colon 1B media plus 10 ng/mL human FGF-10 (PeproTech, cat. 100-26), 1 ng/mL human FGF-2 (PeproTech, cat. 100-18B), 1 µM prostaglandin E2 (Tocris Bioscience, cat. 2296), […] hydrocortisone (Sigma-Aldrich, cat. H4001), and […] bovine insulin (Sigma-Aldrich, cat. I6634). The K86415-001-R-J1-PDC line was cultured in 6D media, which includes all 6C/Colon 1B media components minus the L-WRN conditioned media. The 485176-168-R4-J1-PDC was cultured in PANC media, which includes all 6C/Colon 1B media plus 100 ng/mL human FGF-10 (PeproTech, cat. 100-26), 500 nM SB-431542 (Selleckchem, cat. S1067), and 10 nM gastrin (Tocris Bioscience, cat. 3006). […]
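Note: spheroids exposed to compound for 7 days before readout.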
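Throughout, for viability, T/C: 100% = DMSO vehicle control luminescence.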

C=CC(=O)Nc1cc(Nc2nccc(-c3cn(C)c4ccccc34)n2)c(OC)cc1N(C)CCN(C)C + CCn1c(-c2cccnc2C(C)OC)c2c3cc(ccc31)N1CCOC(CC(NC(=O)C(C(C)C)N(C)C(=O)C3(F)CCN(C(=O)C#CC(C)(C)N(C)C)CC3)C(=O)N3CCCC(N3)C(=O)OCC(C)(C)C2)C1
864 nM: IC50 (second compound 0.0949 µM)
974 nM: IC50 (second compound 0.03 µM)
849 nM: IC50 (second compound 0.3 µM)
> 1000 nM: IC50 (second compound 0.000949 µM) | IC50 (second compound 0.003 µM) | IC50 (second compound 0.00949 µM)
inactive: viability, T/C (second compound 0.000949 µM, first compound 0.00316 µM) 98.7% | viability, T/C (second compound 0.000949 µM, first compound 0.01 µM) 93.3% | viability, T/C (second compound 0.000949 µM, first compound 0.0316 µM) 91.5% | viability, T/C (second compound 0.000949 µM, first compound 0.1 µM) 88.5% | viability, T/C (second compound 0.000949 µM, first compound 0.316 µM) 75.2% | viability, T/C (second compound 0.000949 µM, first compound 1 µM) 53.4% | viability, T/C (second compound 0.003 µM, first compound 0.00316 µM) 108% | viability, T/C (second compound 0.003 µM, first compound 0.01 µM) 108% | viability, T/C (second compound 0.003 µM, first compound 0.0316 µM) 101% | viability, T/C (second compound 0.003 µM, first compound 0.1 µM) 83.6% | viability, T/C (second compound 0.003 µM, first compound 0.316 µM) 73.8% | viability, T/C (second compound 0.003 µM, first compound 1 µM) 53.4% | viability, T/C (second compound 0.00949 µM, first compound 0.00316 µM) 105% | viability, T/C (second compound 0.00949 µM, first compound 0.01 µM) 107% | viability, T/C (second compound 0.00949 µM, first compound 0.0316 µM) 90.9% | viability, T/C (second compound 0.00949 µM, first compound 0.1 µM) 80.2% | viability, T/C (second compound 0.00949 µM, first compound 0.316 µM) 82.3% | viability, T/C (second compound 0.00949 µM, first compound 1 µM) 54.1% | viability, T/C (second compound 0.03 µM, first compound 0.00316 µM) 107% | viability, T/C (second compound 0.03 µM, first compound 0.01 µM) 96.2% | viability, T/C (second compound 0.03 µM, first compound 0.0316 µM) 101% | viability, T/C (second compound 0.03 µM, first compound 0.1 µM) 88.1% | viability, T/C (second compound 0.03 µM, first compound 0.316 µM) 70.6% | viability, T/C (second compound 0.03 µM, first compound 1 µM) 49.5% | viability, T/C (second compound 0.0949 µM, first compound 0.00316 µM) 105% | viability, T/C (second compound 0.0949 µM, first compound 0.01 µM) 108% | viability, T/C (second compound 0.0949 µM, first compound 0.0316 µM) 95.9% | viability, T/C (second compound 0.0949 µM, first compound 0.1 µM) 93.9% | viability, T/C (second compound 0.0949 µM, first compound 0.316 µM) 75% | viability, T/C (second compound 0.0949 µM, first compound 1 µM) 46% | viability, T/C (second compound 0.3 µM, first compound 0.00316 µM) 98.5% | viability, T/C (second compound 0.3 µM, first compound 0.01 µM) 89.3% | viability, T/C (second compound 0.3 µM, first compound 0.0316 µM) 89.5% | viability, T/C (second compound 0.3 µM, first compound 0.1 µM) 81.5% | viability, T/C (second compound 0.3 µM, first compound 0.316 µM) 69.4% | viability, T/C (second compound 0.3 µM, first compound 1 µM) 46.3%
